Paper PMC9775191, “A Subset Screen of the Compounds Australia Scaffold Library Identifies 7-Acylaminodibenzoxazepinones as Potent and Selective Hits for Anti-Giardia Drug Discovery” (Biomedicines, 2022)

System: G. duodenalis BRIS/91/HEPU/1279
Assay: Primary Giardia screen at 10 µM (live-cell imaging, automated counting)
Type: cell-based, Giardia duodenalis
Conditions: for % Inhibition n=1 48h / % Inhibition n=1 24h: first singlicate assay; for % Inhibition n=2 24h / % Inhibition n=2 48h: re-assessment
Outline: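 Percent growth versus 0.2% DMSO vehicle, background-corrected with media-only wells, is reported at 24 and 48 h from automated live-cell counts. Testing used 10 μM final in a 3% O2 atmosphere, with plate quality checked by Z' factor.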

Cc1cc(C(F)(F)F)nn1CC(=O)Nc1cc(Oc2cccnc2)cc([N+](=O)[O-])c1 [SN00783379]
% Inhibition n=1 48h: 22.1%

NC(=O)c1cn(Cc2nc(-c3ccoc3)no2)nc1-c1ccccc1 [SN00770936]
% Inhibition n=1 48h: 0.0%

C=CCc1ccc(OCC(O)CN2C(=O)NC(C)(c3ccccn3)C2=O)c(OC)c1 (centres unmarked) [SN00780622]
% Inhibition n=1 48h: 48.2%

O=C(c1c[nH]nc1-c1ccc(Cl)cc1)N1CCN(c2ccccc2)CC1 [SN00791700]
% Inhibition n=1 48h: 26.6%

Cc1cc(C(=O)COC(=O)C2(O)CCCCC2)c(C)n1-c1c(C)n(C)n(-c2ccccc2)c1=O [SN00773547]
% Inhibition n=1 48h: 1.1%

COc1ccc(CCC(=O)N2CCCN(C(=O)c3cc(-c4cccc(Cl)c4)on3)CC2)cc1 [SN00782943]
% Inhibition n=1 48h: 0.0%

COc1ccc(N2CC(c3noc(-c4ccc(C(C)(C)C)cc4)n3)CC2=O)cc1 (centres unmarked) [SN00801793]
% Inhibition n=1 48h: 0.0%

CCc1c(C2CCN(C(=O)c3cnccn3)CC2)noc1N [SN00798959]
% Inhibition n=1 48h: 12.1%

COc1ccc(C(=O)c2c(N)c(-c3nc(-c4cc(OC)ccc4OC)cs3)c3ccccn23)cc1 [SN00785721]
% Inhibition n=1 48h: 0.0%

CCCc1cc(N2CCOCC2)n2nc(C)c(-c3ccccc3)c2n1 [SN00780810]
% Inhibition n=1 48h: 20.2%

Cc1nc(N2CCCC2)c2c(C)c(C(=O)Nc3ccccc3Cl)sc2n1 [SN00793643]
% Inhibition n=1 48h: 49.2%

C=C(C)CN1Cc2ccccc2CC1c1nnc(CC)o1 (centres unmarked) [SN00783147]
% Inhibition n=1 48h: 0.0%

CS(=O)(=O)c1nccn1Cc1ccccn1 [SN00783289]
% Inhibition n=1 48h: 1.6%

O=C(CN1CCC(c2nc(-c3ccc(F)cc3)no2)CC1)NCc1ccccc1 [SN00799393]
% Inhibition n=1 48h: 0.0%

O=C(Cn1c(-c2ccccn2)noc1=O)N1CCc2sccc2C1 [SN00781376]
% Inhibition n=1 48h: 0.0%

CCOc1ccc(S(=O)(=O)N(C)Cc2c(C)nn(C)c2C)cc1 [SN00802962]
% Inhibition n=1 48h: 2.3%

Cn1ncc2c(N3CCCN(C4CC4)CC3)ncnc21 [SN00782468]
% Inhibition n=1 48h: 9.8%

O=C(NC1CCCCCC1)c1cc2cn(C3CC3)cc2s1 [SN00802023]
Average % Inhibition 24h: 1.8% | % Inhibition n=1 24h: 3.6% | % Inhibition n=2 24h: 0.0% | Average % Inhibition 48h: 46.9% | % Inhibition n=1 48h: 43.4% | % Inhibition n=2 48h: 50.4%

O=C(NCCN1CCCCCC1=O)C1CCCN1C(=O)C1CCCC1 (centres unmarked) [SN00774624]
% Inhibition n=1 48h: 0.0%

Cc1nnc(-c2ccc3ccn(CC(=O)NC4CC4)c3c2)o1 [SN00798392]
% Inhibition n=1 48h: 0.0%

Cc1ccc(-c2nc(-c3cccc(-c4ccn[nH]4)c3)no2)cc1 [SN00798298]
Average % Inhibition 24h: 6.3% | % Inhibition n=1 24h: 9.4% | % Inhibition n=2 24h: 3.2% | Average % Inhibition 48h: 41.5% | % Inhibition n=1 48h: 55.6% | % Inhibition n=2 48h: 27.4%

Cc1nn(C)c(N2CCC(C(=O)NC(C)C(C)C)CC2)c1[N+](=O)[O-] (centres unmarked) [SN00775640]
% Inhibition n=1 48h: 7.0%

Cc1noc(COC2CCCN(C(=O)c3nn(C)c4ccccc34)C2)n1 (centres unmarked) [SN00801154]
% Inhibition n=1 48h: 0.0%

Cc1sc2ccn(CC(C)C)c(=O)c2c1C(=O)NCCN1CCCCC1 [SN00799956]
% Inhibition n=1 48h: 23.1%

O=C(NCc1ccc(F)cc1)N1CCCCC1c1nc(-c2ccccc2)no1 (centres unmarked) [SN00772110]
% Inhibition n=1 48h: 0.0%

CCS(=O)(=O)c1ncc(N(Cc2ccco2)Cc2ccccc2F)c(C(=O)Nc2ccccc2)n1 [SN00786098]
% Inhibition n=1 48h: 17.4%

O=C(C1CCCN(S(=O)(=O)c2ccccc2)C1)N1CCCC(C(F)(F)F)C1 (centres unmarked) [SN00774985]
% Inhibition n=1 48h: 7.6%

CCCCOC(=O)c1ccc(NC(=O)c2cc3c(=O)n(C)c(=O)n(C)c3n2CCC)cc1 [SN00772629]
% Inhibition n=1 48h: 16.7%

CCCNC(=O)[C@@H]1[C@@H]2C=C[C@@]3(CN(Cc4ccccc4Cl)C(=O)[C@H]13)O2 (relative stereo) [SN00784246]
% Inhibition n=1 48h: 16.0%

COCC(=O)N1CCC(Oc2ncccc2C(=O)N(C)C)CC1 [SN00800001]
% Inhibition n=1 48h: 4.8%

COc1ccc(CC(=O)N2CCN(Cc3nc4cc(C(=O)N5CCCC5)ccc4n3C)CC2)cc1 [SN00795130]
% Inhibition n=1 48h: 13.8%

O=C(N[C@H]1C[C@@H]2C[C@H]1CN2S(=O)(=O)c1ccc2c(c1)CCCC2)c1cccnc1 [SN00800980]
% Inhibition n=1 48h: 0.6%

CSc1ccc(Cl)c(C(=O)N2CCCN(C(=O)c3ccncc3)CC2)c1 [SN00771952]
% Inhibition n=1 48h: 45.6%

Cc1c(F)cccc1NC(=O)Nc1ccc2c(c1)CCN2S(C)(=O)=O [SN00796291]
% Inhibition n=1 48h: 21.1%

CCc1ncc2c(n1)CN(Cc1nc(-c3ccco3)oc1C)CC2 [SN00783272]
% Inhibition n=1 48h: 0.0%

CCN(CC)CCCC(C)NC(=O)c1cc(-c2ccco2)on1 (centres unmarked) [SN00802522]
% Inhibition n=1 48h: 3.7%

COc1cccc(-c2noc(Nc3cccc(C)c3)n2)c1 [SN00791775]
% Inhibition n=1 48h: 0.0%

O=C(c1cccc(Br)c1)N1CCc2nc(-c3ccc(F)cc3)ncc2C1 [SN00799013]
% Inhibition n=1 48h: 13.8%

COc1ccc(S(=O)(=O)N2CCCC(C)(C(=O)NCc3ccc(F)cc3)C2)cc1 (centres unmarked) [SN00795932]
% Inhibition n=1 48h: 8.4%

Cc1noc2ncc(C(=O)N3CCN(C(C)C)CC3)cc12 [SN00779057]
% Inhibition n=1 48h: 0.0%

CC(=O)N1c2ccc(S(=O)(=O)N3CCCCC3)cc2CC1C(=O)N1CCCCC1 (centres unmarked) [SN00791893]
% Inhibition n=1 48h: 0.0%

Cc1oc(-c2ccco2)nc1CN1CCc2cnc(C(C)C)nc2C1 [SN00807954]
% Inhibition n=1 48h: 0.1%

Cc1noc(-c2nn(C)c3c2CN(S(=O)(=O)Cc2cccc(F)c2)CC3)n1 [SN00796798]
% Inhibition n=1 48h: 14.3%

COc1ccc(-n2nnc(-c3nsc(Nc4ccc(Cl)cc4)n3)c2C)cc1 [SN00798137]
% Inhibition n=1 48h: 11.6%

CCCn1nnc(NCc2ccc(OCc3ccccc3)cc2)n1 [SN00794214]
% Inhibition n=1 48h: 16.1%

CCC(C)NC(=O)N1CCc2c(sc3nc(-c4ccc(C)cc4)nn23)C1 (centres unmarked) [SN00790900]
% Inhibition n=1 48h: 10.9%

CN1C(=O)Cc2cc(-c3csc(N=C(N)N)n3)ccc21 [SN00777034]
% Inhibition n=1 48h: 0.0%

Cc1c(N2CCC(C(=O)NC3CCCCCC3)CC2)c(=O)n(CC(C)C)c(=O)n1-c1ccccc1 [SN00790002]
% Inhibition n=1 48h: 9.5%

CC(=O)c1c(C)[nH]c(C(=O)Nc2nc(-c3ccco3)c(-c3ccco3)s2)c1C [SN00769770]
Average % Inhibition 24h: 25.0% | % Inhibition n=1 24h: 21.9% | % Inhibition n=2 24h: 28.1% | Average % Inhibition 48h: 52.7% | % Inhibition n=1 48h: 59.6% | % Inhibition n=2 48h: 45.9%

CC1CCC(NC(=O)c2ccc(-c3noc(C4CCN(C(=O)c5ccccc5)CC4)n3)cc2)CC1 (centres unmarked) [SN00797379]
% Inhibition n=1 48h: 0.0%

CCC(C)(NCc1ncc(-c2cccs2)o1)c1nccs1 (centres unmarked) [SN00783193]
% Inhibition n=1 48h: 26.6%

Cc1cccc(CC(=O)N2CCN(c3nc4cccnc4n(Cc4ccccc4)c3=O)CC2)c1 [SN00797319]
% Inhibition n=1 48h: 38.8%

Cc1nsc(N2CCCN(C(=O)NCc3ccccc3C)CC2)n1 [SN00782653]
% Inhibition n=1 48h: 0.0%

CCCNC(=O)Cn1cccc1-c1nc(-c2ccc(Cl)cc2)cs1 [SN00797520]
% Inhibition n=1 48h: 24.8%

Cc1cn2c(S(=O)(=O)N3CCN(c4ccc(F)cc4)CC3)c(C(C)C)nc2s1 [SN00799325]
% Inhibition n=1 48h: 19.4%

Cc1c(C(=O)N2CCCC2Cn2cccn2)cnn1-c1ccccc1 (centres unmarked) [SN00774604]
% Inhibition n=1 48h: 16.2%

COc1cc(CNCCNC(=O)c2nonc2N)ccc1OCc1ccc(F)cc1 [SN00784068]
% Inhibition n=1 48h: 0.0%

COCCCN1C(=O)CSc2c(c(C)nn2-c2ccccc2)C1C(=O)NCc1ccccc1OC (centres unmarked) [SN00791374]
% Inhibition n=1 48h: 0.0%

CC(C)Cn1cc2c3c(cccc31)CN(C(=O)Cc1cccs1)CC2 [SN00798552]
% Inhibition n=1 48h: 35.1%

Cc1ccccc1S(=O)(=O)N1CCC2(CC1)Nc1ccc(Cl)cc1-n1cccc12 [SN00789223]
% Inhibition n=1 48h: 20.1%

O=C(NCc1ccc2c(c1)CCN2C(=O)c1ccccc1)c1n[nH]c2c1CCc1ccccc1-2 [SN00793591]
% Inhibition n=1 48h: 5.7%

COc1ccc(OC)c(CNC(=O)c2ccc(N3CCOc4ccccc43)s2)c1 [SN00791505]
% Inhibition n=1 48h: 9.9%

Cc1[nH]c(=O)sc1S(=O)(=O)N1CCN(c2ccccc2[N+](=O)[O-])CC1 [SN00779481]
% Inhibition n=1 48h: 0.0%

CCc1nc(-c2cc(S(=O)(=O)NCc3ccc(F)c(Cl)c3)c(C)s2)cs1 [SN00798443]
Average % Inhibition 24h: 15.2% | % Inhibition n=1 24h: 16.9% | % Inhibition n=2 24h: 13.6% | Average % Inhibition 48h: 43.8% | % Inhibition n=1 48h: 50.2% | % Inhibition n=2 48h: 37.5%

CCCCS(=O)(=O)N1CCC2(CC1)CC2c1nc(-c2cccc(Cl)c2)no1 (centres unmarked) [SN00782685]
% Inhibition n=1 48h: 0.0%

O=C(NCc1ccc2c(c1)CCN2C(=O)c1ccccc1)C1CCN(S(=O)(=O)N2CCCC2)CC1 [SN00793589]
% Inhibition n=1 48h: 7.9%

CCC(=O)N1CCCC1C1CCCN1Cc1cn2c(C)cccc2n1 (centres unmarked) [SN00777763]
% Inhibition n=1 48h: 16.6%

CCOc1ccc2nc(C(=O)N3CCN(c4cccc(C)c4C)CC3)cn2n1 [SN00799885]
% Inhibition n=1 48h: 9.3%

Cc1ccc(NS(=O)(=O)c2ccc(-n3cccn3)cc2)cc1 [SN00794732]
% Inhibition n=1 48h: 6.0%

O=C(Cn1c2ncccc2c(=O)n1-c1ccccc1)NC1CCCC1 [SN00791196]
% Inhibition n=1 48h: 18.2%

Cc1ccc(S(=O)(=O)NC(C)c2nc(-c3cccc(C(=O)N4CCCC4)c3)no2)cc1 (centres unmarked) [SN00789753]
% Inhibition n=1 48h: 5.7%

CCCOc1ccc(CN2CCCC2c2c(C)noc2C)cc1 (centres unmarked) [SN00793908]
% Inhibition n=1 48h: 16.7%

CCn1ccnc1CN1CCCN(C(=O)c2cnc(C)cn2)CC1 [SN00771476]
% Inhibition n=1 48h: 10.9%

CCOc1ccc(CNC(=O)c2cccc(NC(=O)c3nnc(C4CC4)s3)c2)cc1 [SN00790732]
% Inhibition n=1 48h: 0.0%

COc1ccccc1N1CCN(C(=O)c2ccc3[nH]c(C)c(C)c3c2)CC1 [SN00775216]
% Inhibition n=1 48h: 36.6%
